In patent US7183267B2, “β-lactamase inhibitors and methods of use thereof” (priority 2003, dated 2007):

Key:
TEM-1 β-lactamase = TEM-1 β-lactamase (Escherichia coli, UniProt P62593); test: TEM-1 β-lactamase inhibition assay (nitrocefin hydrolysis, 486 nm); format: biochemical
Experimental: (§1) The inhibition of TEM-1 β-lactamase was determined spectrophotometrically. B-lactamase activity was followed by measuring the hydrolysis of nitrocefin, [3-(2,4-dinitrostyryl)-(6R, 7R)-7-(2-thienylacetamido)-ceph-3-em-4-carboxylic acid, E-isomer], (Calbiochem, San Diego, Calif., USA) at 486 nm. Inhibition assays were performed at 25° C. in 50 mM sodium phosphate, 5% DMSO, pH 7.0. […] Inhibitor was added to the enzyme and incubated for ten minutes before the addition of substrate. Inhibition constants (Ki) for the inhibitors are obtained at the desired temperature and solvent conditions by measuring the rate of substrate hydrolysis at increasing amounts of inhibitors.
The competitive inhibition of β-lactamase was determined spectrophotometrically using a Varian (Walnut Creek, Calif.) Cary 100 UV-Visible spectrophotometer. β-lactamase activity was followed by measuring the hydrolysis of nitrocefin, [3-(2,4-dinitrostyryl)-(6R, 7R)-7-(2-thienylacetamido)-ceph-3-em-4-carboxylic acid, E-isomer], (Calbiochem, San Diego, Calif.) at 486 nm. Inhibition assays were performed at 25° C. in 50 mM sodium phosphate, 5% DMSO, pH 7.0. […] Penicillin G (Sigma, St. Louis, Mo.) was also used as a substrate to determine KM and kcat.
Inhibitor was added to protein and incubated for ten minutes before the addition of substrate. Inhibition constants were determined by measuring the loss of P-lactamase activity with increasing inhibitor concentrations and fitting the data to standard equations for competitive inhibition.
These methods can also be used to express and assay recombinant TEM-1 variant of β-lactamase.

β-lactamase mutant M69I = β-lactamase mutant M69I (Escherichia coli, UniProt P62593, M67I); format: biochemical; conditions: number higher than 1 reflects a loss of potency against mutant
Experimental: as §1
(§2) Three of the most important mutations are M69I, R244S and E104K.

β-lactamase mutant R244S = β-lactamase mutant R244S (Escherichia coli, UniProt P62593, R241S); format: biochemical; conditions: number higher than 1 reflects a loss of potency against mutant
Experimental: as §1, §2

β-lactamase mutant E104K = β-lactamase mutant E104K (Escherichia coli, UniProt P62593, E102K); format: biochemical; conditions: number higher than 1 reflects a loss of potency against mutant
Experimental: as §1, §2

β-lactamase R244S = β-lactamase R244S (Escherichia coli, UniProt P62593, R241S); test: Isothermal titration calorimetry, binding enthalpy, R244S mutant
Experimental: (§3) The binding of the compounds of the present invention to β-lactamase was also measured by isothermal titration calorimetry.
(§4) These experiments, in combination with the inhibition assays, indicate that the compounds identified in this disclosure bind to the wild type as well as drug resistant beta lactamases with favorable binding enthalpies. This is a very important characteristic from the point of view of further optimization since it facilitates the achievement of extremely high affinities and low susceptibilities to drug resistant mutations and naturally occurring polymorphisms.
(§5) Isothermal titration calorimetry was performed on a high-precision VP-ITC titration calorimeter (Microcal Inc., Northampton, Mass.). β-Lactamase solutions were titrated with inhibitors in 50 mM sodium phosphate, 2% DMSO, pH 7.0, with β-lactamase concentrations ranging from 15 to 25 μM and inhibitor concentrations ranging from 300 to 1000 μM. The heat evolved from each injection was obtained by integrating the calorimetric signal. Heat of binding was obtained as the difference between the heat of reaction and the heat of inhibitor dilution. Data were analyzed using Origin 7.0 (OriginLab Corporation, Northampton, Mass.).

β-lactamase wt = β-lactamase wt (Escherichia coli, UniProt P62593); test: Isothermal titration calorimetry, binding enthalpy, wild type
Experimental: as §3, §4, §5

β-lactamase M69I = β-lactamase M69I (Escherichia coli, UniProt P62593, M67I); test: Isothermal titration calorimetry, binding enthalpy, M69I mutant
Experimental: as §3, §4, §5

β-lactamase E104K = β-lactamase E104K (Escherichia coli, UniProt P62593, E102K); test: Isothermal titration calorimetry, binding enthalpy, E104K mutant
Experimental: as §3, §4, §5

[1] = Ki, 25° C., 50 mM sodium phosphate, 5% DMSO, pH 7.0, enzyme 5 nM, nitrocefin 167 μM

Row | Compound | Ki (TEM-1 β-lactamase; [1]) [µM] | melting point [°C] | Loss of potency: ratio of the inhibitory constant between mutant and wild type (Potencywt/Potencymutant), M69I (β-lactamase mutant M69I) | Loss of potency: ratio of the inhibitory constant between mutant and wild type (Potencywt/Potencymutant), R244S (β-lactamase mutant R244S) | Loss of potency: ratio of the inhibitory constant between mutant and wild type (Potencywt/Potencymutant), E104K (β-lactamase mutant E104K) | Ki (TEM-1 β-lactamase; Ki from Lineweaver-Burke Analysis, values in parenthesis, Lineweaver-Burke analysis) [µM] | ΔH R244S (β-lactamase R244S) [kcal/mol] | ΔH wt (β-lactamase wt) [kcal/mol] | ΔH M69I (β-lactamase M69I) [kcal/mol] | ΔH E104K (β-lactamase E104K) [kcal/mol]
1 | O=C(Oc1ccc([N+](=O)[O-])cc1)c1cc(B(O)O)cc([N+](=O)[O-])c1 [Compound (1a), 3-(4-Nitrophenoxycarbonyl)-5-nitrophenylboronic acid] | 80 ± 9 | 205 to 207 | 0.43 | 0.44 | 0.39 | – | – | – | – | –
2 | O=C(Oc1cccc([N+](=O)[O-])c1)c1cc(B(O)O)cc([N+](=O)[O-])c1 [Compound (1c), 3-(3-Nitrophenoxycarbonyl)-5-nitrophenylboronic acid] | 39 ± 7 | 185 to 187 | 1.0 | 0.52 | 0.56 | – | – | – | – | –
3 | COc1ccc(OC(=O)c2cc(B(O)O)cc([N+](=O)[O-])c2)cc1 [Compound (1d), 3-(4-Methoxyphenoxycarbonyl)-5-nitrophenylboronic acid] | 42 ± 7 | 67 | 0.60 | 0.62 | 0.55 | – | – | – | – | –
4 | N#Cc1ccccc1OC(=O)c1cc(B(O)O)cc([N+](=O)[O-])c1 [Compound (1g), 3-(2-Cyanophenoxycarbonyl)-5-nitrophenylboronic acid] | 37 ± 3 | – | 0.40 | 0.26 | 0.32 | 1.37 | -8.2 | -5.52 | -2.46 | -6.397
